Measurements taken from US6838574B1, “Dicarba-closo-dodecarborane derivatives” (Institute of Medicinal Molecular Design, Inc., priority 1999, dated 2005).

How the values were obtained:
Format in all cases: cell-based
[1] = target: T1, rat estrogen receptor (pCI-rER α) (Rattus norvegicus, UniProt P06211); assay: Estrogenic activity, estrogen receptor-dependent luciferase reporter gene assay in COS-1 cells; settings: for EC50: 50% of luciferase activity of β-estradiol at 10 nM (=100), COS-1; for Relative Activity (%) at the Same Amount of β-estradiol: β-estradiol = 100
T1 construct: expressed in transfected cells; host or cells: COS-1 cells
T1 sequence (P06211 1-600): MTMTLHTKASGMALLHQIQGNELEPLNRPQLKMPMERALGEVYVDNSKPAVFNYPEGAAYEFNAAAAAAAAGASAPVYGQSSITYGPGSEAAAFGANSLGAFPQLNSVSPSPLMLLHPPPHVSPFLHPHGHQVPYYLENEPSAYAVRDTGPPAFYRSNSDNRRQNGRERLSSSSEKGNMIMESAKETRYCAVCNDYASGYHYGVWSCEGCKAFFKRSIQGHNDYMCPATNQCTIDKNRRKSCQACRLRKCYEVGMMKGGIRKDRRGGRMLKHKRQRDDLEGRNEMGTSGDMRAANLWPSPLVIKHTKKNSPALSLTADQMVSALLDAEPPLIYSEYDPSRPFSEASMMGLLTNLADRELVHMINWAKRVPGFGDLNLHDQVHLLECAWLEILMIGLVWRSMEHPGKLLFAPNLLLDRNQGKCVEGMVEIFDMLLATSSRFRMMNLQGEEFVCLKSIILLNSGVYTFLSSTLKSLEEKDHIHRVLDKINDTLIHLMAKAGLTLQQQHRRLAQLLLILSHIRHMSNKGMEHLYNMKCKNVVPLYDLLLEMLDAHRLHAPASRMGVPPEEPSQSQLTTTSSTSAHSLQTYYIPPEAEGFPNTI
Protocol: As estrogenic activity, estrogen receptor-dependent transcriptional activation abilities of the test compounds were determined by the r porter gene assay using luciferase gene. COS-1 cells were cultured using a DMEM medium containing an antibiotics and 5% bovine fetal serum in the wells of 24 well plates (cell density: 5 to 6×10^4/well) at 37° C. for one night under 5% carbon dioxide. On the next day, the medium was changed to DMEM medium not containing Phenol Red. Using gene introducing reagent Tfx-20 (Promega), reporter plasmid EREx3-pGL-TK, in which rat estrogen receptor expression plasmid pCI-rER α and an estrogen responsive sequence were placed upstream of the luciferase gene, and β-galactosidase expression plasmid pCMV β used as an internal standard were introduced into cells. The cells were cultured for 2 h, and the medium was changed to DMEM not containing Phenol Red but containing active charcoal-treated serum.
The culture was added with each test compound dissolved in ethanol at various concentrations (final ethanol concentration at 0.5%) and then cultivation was continued at 37° C. for one night under 5% carbon dioxide. On the next day, the cells were lysed and enzymatic activity of luciferase expressed was measured by using a chemiluminometer. The values were standardized based on galactocidase enzymatic activity, and then compared with the values obtained by experiments using no test compound and used as values of activity at various concentrations. […] The estrogenic activities in the table are shown as concentrations for 50% activity (EC50 values) which give 50% activities relative to luciferase activity regarded as 100 that is expressed by treatment with the control compound β-estradiol at 10 nM. Each compound tested in this experiment has a high estrogenic activity.
Estrogenic activities, i.e., estrogen receptor-dependent transcriptional abilities of test compounds, were determined by the reporter gene assay using the luciferase gene in the same manner as those described above. In this experiment (Table 6), estrogenic activities at 0.1 nM, 1 nM, and 10 nM of the test compounds are shown as relative values in view of the luciferase activity regarded as 100 which is expressed at the same amounts of β-estradiol as a control, and intensities of activities were compared. Each compound tested in this experiment has high estrogenic activity.

[2] = tested on: human promyelocytic leukemia cell strain HL-60; assay: HL-60 differentiation with coexisting differentiation inducer Am80 (anti-differentiation activity); settings: coexisting Am80 1×10^−9 M (Table 4)
[3] = tested on: human promyelocytic leukemia cell strain HL-60; assay: HL-60 differentiation induction, test compound alone; settings: for differentiation inducing activity at low concentration (in words): 0.01 μM test compound; for differentiation inducing activity at low concentration (in words) / differentiation inducing activity (in words): HL-60; for percentage of differentiated cells, no coexisting compound: HL-60, 4 days, control <10; for differentiation inducing activity (in words): test compound alone
Protocol: Inhibitory activity against proliferation of human promyelocytic leukemia cell strain HL-60 was evaluated an index of anti-leukemia activity. Subcultured HL-60 cells were seeded with the initial cell number of 8×10^4 cells/ml in the RPMI 1640 medium containing bovine fetal serum and an antibiotics. Each test compound was added at various concentrations and the mixture was cultured at 37° C. Four days later, cell number was counted. Anti-leukemia activity of each test compound was shown in the tables as percentage values of differentiated cells, which cells were not differentiated in the absence of the test drug, […] observation and NBT reducing ability of the cells as indexes.

[4] = relative activity experiment (Table 6)
[5] = test compound 1 μM, morphology and NBT reducing ability

Substance | EC50 [1] [nM] | Relative Activity (%) at the Same Amount of β-estradiol ([1]; 1 nM) [%] | Relative Activity (%) at the Same Amount of β-estradiol ([1]; 10 nM) [%] | further results
1,7-bis(4-hydroxyphenyl)-1,7-dicarba-closo-dodecaborane [BE260] | 1 |  |  | 
1,12-bis(4-hydroxyphenyl)-1,12-dicarba-closo-dodecaborane [BE160] | 1 |  |  | 
1-(2-hydroxyethyl)-7-(3-hydroxyphenyl)-1,7-dicarba-closo-dodecaborane [BE422] |  | 11 | 24 | 
1-(2-hydroxyethyl)-7-(4-hydroxyphenyl)-1,7-dicarba-closo-dodecaborane [BE222] |  | 38 | 85 | 
1-(2-hydroxyethyl)-12-(3-hydroxyphenyl)-1,12-dicarba-closo-dodecaborane [BE322] |  | 43 | 85 | 
1-(2-hydroxyethyl)-12-(4-(hydroxyphenyl)-1,12-dicarba-closo-dodecaborane [BE122] |  | 98 | 104 | Relative Activity (%) at the Same Amount of β-estradiol ([1]; 0.1 nM): 83%
1-(2-hydroxymethyl)-7-(3-hydroxyphenyl)-1,7-dicarba-closo-dodecaborane [BE420] |  | 18 | 59 | 
1-(2-hydroxymethyl)-12-(3-hydroxyphenyl)-1,12-dicarba-closo-dodecaborane [BE320] |  | 127 | 127 | Relative Activity (%) at the Same Amount of β-estradiol ([1]; 0.1 nM): 116%; estrogenic activity compared with β-estradiol (in words) [1, 4]: much higher activities than that of β-estradiol
1-(3-hydroxyphenyl)-1,7-dicarba-closo-dodecaborane [BE400] |  | 11 | 38 | 
1-(3-hydroxyphenyl)-1,12-dicarba-closo-dodecaborane [BE300] |  | 20 | 59 | 
1-(3-hydroxypropyl)-7-(3-hydroxyphenyl)-1,7-dicarba-closo-dodecaborane [BE423] |  | <10 | 15 | 
1-(3-hydroxypropyl)-7-(4-hydroxyphenyl)-1,7-dicarba-closo-dodecaborane [BE223] |  | 20 | 51 | 
1-(3-hydroxypropyl)-12-(3-hydroxyphenyl)-1,12-dicarba-closo-dodecaborane [BE323] |  | 12 | 31 | 
1-(3-hydroxypropyl)-12-(4-hydroxyphenyl)-1,12-dicarba-closo-dodecaborane [BE123] |  | 56 | 79 | Relative Activity (%) at the Same Amount of β-estradiol ([1]; 0.1 nM): 29%
1-(4-hydroxyphenyl)-1,7-dicarba-closo-dodecaborane [BE200] | 2 | 45 | 72 | 
1-(4-hydroxyphenyl)-1,12-dicarba-closo-dodecaborane [BE100] | 0.7 | 63 | 82 | Relative Activity (%) at the Same Amount of β-estradiol ([1]; 0.1 nM): 51%; estrogenic activity compared with β-estradiol (in words) ([1]; EC50 experiment (Table 5)): much higher activity than that of β-estradiol
1-amino-12-(4-hydroxyphenyl)-1,12-dicarba-closo-dodecaborane [BE140] | 0.5 |  |  | estrogenic activity compared with β-estradiol (in words) ([1]; EC50 experiment (Table 5)): much higher activity than that of β-estradiol
1-hydrocarbonyl-12-(4-hydroxyphenyl)-12-dicarba-closo-dodecaborane [BE130] | 10 |  |  | 
1-hydroxy-7-(3-hydroxyphenyl)-1,7-dicarba-closo-dodecaborane [BE419] |  | 14 | 38 | 
1-hydroxy-7-(4-hydroxyphenyl)-1,7-dicarba-closo-dodecaborane [BE219] |  | 40 | 71 | 
1-hydroxy-12-(3-hydroxy phenyl)-1,12-dicarba-closo-dodecaborane [BE319] |  | 53 | 72 | 
1-hydroxy-12-(4-hydroxyphenyl)-1,12-dicarba-closo-dodecaborane [BE119] |  | 132 | 120 | Relative Activity (%) at the Same Amount of β-estradiol ([1]; 0.1 nM): 133%; estrogenic activity compared with β-estradiol (in words) [1, 4]: much higher activities than that of β-estradiol
1-hydroxyethyl-12-(4-hydroxyphenyl)-1,12-dicarba-closo-dodecaborane [BE121] | 1 |  |  | estrogenic activity compared with β-estradiol (in words) ([1]; EC50 experiment (Table 5)): much higher activity than that of β-estradiol
1-hydroxymethyl-12-(4-hydroxyphenyl)-1,12-dicarba-closo-dodecaborane [BE120] | 0.05 | 163 | 126 | Relative Activity (%) at the Same Amount of β-estradiol ([1]; 0.1 nM): 212%; estrogenic activity compared with β-estradiol (in words) ([1]; EC50 experiment (Table 5)): much higher activity than that of β-estradiol; estrogenic activity compared with β-estradiol (in words) [1, 4]: much higher activities than that of β-estradiol
1-methoxycarbonyl-12-(4-hydroxyphenyl)-1,12-dicarba-closo-dodecaborane [BE110] | 2 |  |  | 
4-(2,3,4,5,6,7,8,9,10,11-decamethyl-1,12-dicarba-closo-dodecaborane-1-carbonylamino) benzoic acid [BR630] |  |  |  | anti-differentiation activity (in words) [2]: remarkable anti-differentiation activities
4-(2,3,4,5,6,7,8,9,10,11-decamethyl-1,12-dicarba-closo-dodecaborane-1-carbonylamino) benzoic acid [BR635] |  |  |  | anti-differentiation activity (in words) [2]: remarkable anti-differentiation activities
4-[3-(2-propyl-1,2-dicarba-closo-dodecaboran-1-yl)phenylamino]benzoic acid [BR453] |  |  |  | differentiation inducing activity at low concentration (in words) [3]: activities were maintained; percentage of differentiated cells, no coexisting compound ([3]; test compound 0.01 μM): 80%; percentage of differentiated cells, no coexisting compound [3, 5]: 80%; differentiation inducing activity (in words) [3]: strong differentiation inducing activities
4-[4-(2-propyl-1,2-dicarba-closo-dodecaboran-1-yl)phenylamino]benzoic acid [BR403] |  |  |  | differentiation inducing activity at low concentration (in words) [3]: activities were maintained; percentage of differentiated cells, no coexisting compound ([3]; test compound 0.01 μM): 84%; percentage of differentiated cells, no coexisting compound [3, 5]: 82%; differentiation inducing activity (in words) [3]: strong differentiation inducing activities
